Measurements published in PMC4226674, “A phase I trial of the HIV protease inhibitor nelfinavir in adults with solid tumors” (Oncotarget, 2014).
Values joined by “and” are separate entries in the source; they are usually repeats but may differ in a detail not shown here. Identical values can stand only once.

Columns and labels:
CYP3A4 = target: T1, CYP3A4 (Homo sapiens, UniProt P08684); test: CYP3A4 phenotyping with oral midazolam before and at nelfinavir steady state; type: in vivo
T1 construct: To determine CYP3A4 phenotype, a single 3 mg oral dose of midazolam hydrochloride, a CYP3A4 substrate, was administered; from tissue; host or cells: in vivo, the patients' own (hepatic/intestinal) enzyme
Protocol: To determine CYP3A4 phenotype, a single 3 mg oral dose of midazolam hydrochloride, a CYP3A4 substrate, was administered at day -2 (2 days prior to commencing nelfinavir) and again at steady state (cycle 1 day 20). Serial venous blood samples were collected at 15, 30, 60, 120, 180, 240, and 300 minutes following administration of midazolam. […] Plasma concentrations of midazolam and nelfinavir were determined with a validated assay employing high performance liquid chromatography (HPLC) with mass spectrometric detection. Noncompartmental pharmacokinetic analyses were performed with WinNonlin 5.2 (Pharsight). Individual concentration-time profiles were constructed for each patient, course and drug resulting in four profiles per patient (two each for midazolam and nelfinavir). The maximum plasma concentration (Cmax) and the time of maximum plasma concentration (Tmax) were the observed values. Drug exposure was estimated using the area under the concentration-time curve (AUC). The area under the concentration-time curve (AUC) from time zero to the time of the final quantifiable sample (AUClast) was calculated using the linear trapezoidal method. The area under the concentration-time curve from time zero to infinity (AUCinf) was calculated by extrapolation, using the terminal rate constant from the last measurable concentration.

[1] = system: P-AKT S473, P-EIF2 alpha S51, ATF3, CHOP in PBMCs; test: Surrogate biomarkers in PBMCs by immunoblotting; type: in vivo, human
Protocol: Blood was collected in Vacutainer CPT collection tubes with sodium heparin (BD Biosciences cat# 362753) and mononuclear cells were isolated as per the manufacturer's instructions. PBMCs were washed with PBS and lysed in 2X LSB buffer, aliquotted and stored at -80°C. For analysis, equal amounts of protein per sample were run on 10-12% SDS-PAGE gels, then transferred onto nitrocellulose membranes. Membranes were blocked in 5% milk in TBS + 0.1% tween (TBST) and incubated with primary antibody diluted in 5% BSA in TBST at 4 degrees overnight. The next day membranes were washed, incubated with HRP-linked secondary antibody and developed using ECL chemiluminescent reagent (GE Healthcare) and X-ray film as per the manufacturers instructions. […] Antibodies to CHOP sc-7351 and ATF3 sc-188 were from Santa Cruz Biotechnology (Santa Cruz, CA).

liposarcoma = conditions: cited from earlier work
[2] = system: advanced refractory solid tumors; test: Tumor response by RECIST and duration of therapy
Protocol: Physical examinations, toxicity assessments and laboratory analyses were conducted weekly during cycle 1 and then every three weeks beginning cycle 2. An electrocardiogram was performed every cycle, and restaging scans were performed at baseline and every two cycles thereafter. Subjects remained on study until disease progression (as determined by RECIST), severe toxicity, or individual choice.
Tumor response was assessed according to Response Evaluation Criteria in Solid Tumors (RECIST) [34] every two cycles.

T1 sequence (P08684 whole entry): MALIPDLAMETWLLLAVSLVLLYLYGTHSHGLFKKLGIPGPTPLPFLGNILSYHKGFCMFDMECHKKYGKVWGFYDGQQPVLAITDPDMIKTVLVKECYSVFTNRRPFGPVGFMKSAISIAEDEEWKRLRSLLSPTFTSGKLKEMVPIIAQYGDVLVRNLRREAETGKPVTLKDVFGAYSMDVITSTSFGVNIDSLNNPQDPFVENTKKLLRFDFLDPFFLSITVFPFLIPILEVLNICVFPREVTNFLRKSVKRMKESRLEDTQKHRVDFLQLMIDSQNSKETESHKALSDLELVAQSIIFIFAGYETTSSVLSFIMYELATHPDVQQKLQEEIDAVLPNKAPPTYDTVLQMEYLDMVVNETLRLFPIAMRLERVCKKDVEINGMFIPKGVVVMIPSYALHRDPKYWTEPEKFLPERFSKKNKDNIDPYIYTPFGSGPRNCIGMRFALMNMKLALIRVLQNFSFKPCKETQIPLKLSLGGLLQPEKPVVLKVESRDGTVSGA

With Cc1c(O)cccc1C(=O)N[C@@H](CSc1ccccc1)[C@H](O)CN1C[C@H]2CCCC[C@H]2C[C@H]1C(=O)NC(C)(C)C [nelfinavir, Nelfinavir] the “change in midazolam clearance” value (CYP3A4; day 20 (nelfinavir steady state) vs pre-nelfinavir (D-2), 3 mg oral midazolam, 19 subjects, p<0.001) was “significant decrease”, the “change in midazolam exposure and half-life” value (CYP3A4; day 20 vs pre-nelfinavir, p<0.05 for each, data not shown) was “significant increase” and the “biomarker changes in PBMCs from baseline” value ([1]; DL1 or DL2 (1250, 1875 mg bid)) was “no biomarker changes”. For the same compound, the “subjects with decrease in P-AKT S473 or increase in EIF2 alpha S51 phosphorylation” value ([1]; DL3 (2500 mg bid)) was 1 out of 3, the “subjects showing changes in 3 of 4 biomarkers evaluated” value ([1]; DL4 (3125 mg bid)) was 3 and the “effect on markers of ER stress in peripheral blood mononuclear cells” value ([1]; in vivo) was “induced markers of ER stress”. The “MTD in liposarcoma patients” value (liposarcoma; Phase I trial) was “MTD was not reached”, the “dose above which PK non-linearity was found” value (liposarcoma; liposarcoma patients) was “above 3000 mg bid” and the “dose at which auto-induction was noted (highest dose evaluated)” value (liposarcoma; liposarcoma patients) was 4125 mg BID. The “time on study, two of the subjects with NET of the midgut” value ([2]; 3125 mg BID) was “at least 8 months”, the “subjects remaining on study for 8 months or more” value ([2]; 3125 mg BID MTD, progressed prior to study entry (four subjects)) was 36% and the “ORR (confirmed partial response) at the MTD” value ([2]; 3125 mg bid expansion cohort, 11 evaluable subjects) was 9% and 9.1%. For the same compound, the “ORR in the overall population” value ([2]; 21 evaluable subjects, all dose levels) was 4.8%, the “minor responses in subjects with neuroendocrine tumors” value ([2]; NET of the midgut or pancreatic origin, MTD) was “two” and the “subjects with stable disease for more than 6 months” value ([2]; expansion cohort at the MTD) was “Thirty-six”. The “levels of circulating chromogranin, synaptophysin, and/or urinary 5-HIAA” value ([2]; responders with NET and carcinoid syndrome) was “transient decreases”, the “time to improvement of carcinoid syndrome symptoms (flushing and diarrhea)” value ([2]; responders with NET that had carcinoid syndrome) was at most 7 days and the Duration of therapy ([2]; subject 1, SCLC, 1250 mg BID) was 1.4 mos. The Duration of therapy ([2]; subject 3, SCLC, 1250 mg BID) was 1.4 mos, the Duration of therapy ([2]; subject 4, SCLC, 1250 mg BID) was 1.4 mos and the Duration of therapy ([2]; subject 5, Anaplastic Thyroid, 1875 mg BID) was 1.4 mos. It also gave a Duration of therapy ([2]; subject 7, Differentiated Thyroid, 1875 mg BID) of 2.8 mos, a Duration of therapy ([2]; subject 8, NSCLC, 1875 mg BID) of 3.5 mos and a Duration of therapy ([2]; subject 9, Colorectal, 2500 mg BID) of 1.4 mos. For the same compound, the Duration of therapy ([2]; subject 10, Pancreatic Adenocarcinoma, 2500 mg BID) was 2.8 mos, the Duration of therapy ([2]; subject 11, NSCLC, 2500 mg BID) was 4.1 mos and the Duration of therapy ([2]; subject 12, Differentiated thyroid, 3125 mg BID) was 2.1 mos. For the same compound, the Duration of therapy ([2]; subject 14, Renal Cell Cancer, 3125 mg BID) was 1.4 mos, the Duration of therapy ([2]; subject 17, Adenoid Cystic, 3125 mg BID) was 11 mos. and 11.0 mos and the Duration of therapy ([2]; subject 18, Neuroendocrine tumor, 3125 mg BID) was 8.3 mos. The Duration of therapy ([2]; subject 19, Colorectal, 3125 mg BID) was 4.1 mos, the Duration of therapy ([2]; subject 21, Adenoid Cystic, 3750 mg BID) was 1.4 mos and the Duration of therapy ([2]; subject 23, Prostate, 3125 mg BID) was 1.0 mos. The Duration of therapy ([2]; subject 24, SCLC, 3125 mg BID) was 2.8 mos, the Duration of therapy ([2]; subject 25, Colorectal, 3125 mg BID) was 2.8 mos and the Duration of therapy ([2]; subject 26, Neuroendocrine tumor, 3125 mg BID) was 12.4 mos. For the same compound, the Duration of therapy ([2]; subject 27, Neuroendocrine tumor, 3125 mg BID) was 3.5 mos, the Duration of therapy ([2]; subject 28, Neuroendocrine tumor (midgut, carcinoid syndrome), 3125 mg BID) was 23.5 mos and the “additional time on nelfinavir off study with stable disease” value ([2]; subject that achieved a PR, NET of the midgut) was “six”.
